Columns and labels:
[1] = Redox potential of flavin cofactor; assay type: physicochemical
[2] = molecular target: T1, 8-CN-FMN-OYE (Saccharomyces pastorianus, UniProt Q02899); test: Oxidation of saturated carbonyl substrates by the catalyst with molecular oxygen (GC/MS); assay type: biochemical
T1 construct: made in house; host or cells: Escherichia coli (plasmid pET-3b)
Protocol: Two ml of 10 mM solution of hydrocinnamaldehyde (C6 H5 --CH2 --CH2 --CHO) in 100 mM sodium pyrophosphate buffer, pH 8.5 was taken in a 5 ml test tube with a small magnetic stir bar at room temperature. The catalyst, as a concentrated solution in the same buffer, was added to the above solution so that final concentration of the catalyst is 10 μM. […]
When and wherever side reactions were observed due to hydrogen peroxide (which is produced during the oxidation), 5 μl of catalase (1 mg/ml) was added to the reaction mixture prior to the addition of the catalyst as a hydrogen peroxide scavenger.
The racemic 3-phenyl-butyraldehyde was subjected to typical oxidation reaction with the catalytic system of the present invention. […] It can be concluded, in analogy to the 3-Me-cyclopentanone reaction, that the oxidation of S-enantiomer only catalyzed by the catalyst leaving the R-enantiomer intact as hydrogen at the asymmetric center lies in unfavorable geometry. This reaction once again highlights the potential of the present catalytic system in resolving racemic carbonyl compounds.

[3] = molecular target: T2, Old Yellow Enzyme (Saccharomyces pastorianus, UniProt Q02899); test: p-Cl-phenol binding to native Old Yellow Enzyme (charge transfer complex); set-up: species or system Brewer's Bottom Yeast
T2 construct: recombinant OYE I (pET-3b, E. coli) or enzyme isolated from brewer's bottom yeast (mix of close OYE isoforms)
Protocol: The apoprotein of Old Yellow Enzyme was prepared and reconstituted with 8-CN-8-demethyl-flavin mononucleotide as described above. […] Native enzyme binds p-Cl-phenol with a Kd of~1 μM and has a maximum of 645 nm for the charge transfer absorption band. The 115 nm blue shift thus falls in line with the 170 mV more positive potential compared to that of the native flavin.

T1 sequence (Q02899 whole entry): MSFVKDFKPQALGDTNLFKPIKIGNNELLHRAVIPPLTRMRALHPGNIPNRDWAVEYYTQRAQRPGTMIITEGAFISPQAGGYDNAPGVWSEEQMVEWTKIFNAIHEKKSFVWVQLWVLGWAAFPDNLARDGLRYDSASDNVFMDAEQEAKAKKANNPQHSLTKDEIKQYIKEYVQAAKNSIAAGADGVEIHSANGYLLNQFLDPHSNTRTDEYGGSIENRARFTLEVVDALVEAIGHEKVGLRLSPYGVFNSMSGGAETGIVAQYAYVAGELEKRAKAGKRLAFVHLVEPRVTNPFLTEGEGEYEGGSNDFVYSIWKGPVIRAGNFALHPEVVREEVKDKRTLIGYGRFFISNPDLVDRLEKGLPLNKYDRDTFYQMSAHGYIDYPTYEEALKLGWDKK
T2 sequence (Q02899 2-400): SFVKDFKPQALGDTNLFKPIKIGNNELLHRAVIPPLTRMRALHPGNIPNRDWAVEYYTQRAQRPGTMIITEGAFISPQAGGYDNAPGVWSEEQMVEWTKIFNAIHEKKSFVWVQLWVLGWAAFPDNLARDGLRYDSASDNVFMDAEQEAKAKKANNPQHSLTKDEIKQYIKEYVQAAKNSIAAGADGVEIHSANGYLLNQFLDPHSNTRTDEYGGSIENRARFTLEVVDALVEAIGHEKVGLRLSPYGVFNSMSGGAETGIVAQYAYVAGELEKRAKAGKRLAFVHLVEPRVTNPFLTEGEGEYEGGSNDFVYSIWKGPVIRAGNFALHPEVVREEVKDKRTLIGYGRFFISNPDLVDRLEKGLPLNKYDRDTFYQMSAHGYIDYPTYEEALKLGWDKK

In the case of Cc1cc2nc3c(=O)[nH]c(=O)nc-3n(C[C@H](O)[C@H](O)[C@H](O)COP(=O)(O)O)c2cc1C#N [8-CN-FMN, 8-CN-8-demethyl-flavin mononucleotide], the redox potential [1] is reported as -38 mV and the “redox potential positive to the native cofactor, FMN” value ([1]; difference versus FMN) is reported as “about 170 mV”.

With CC(CC=O)c1ccccc1 (racemic) [3-phenyl-butyraldehyde] the substrate reacted ([2]; racemic substrate, 36 hours-48 hours, GC/MS) was ~ 50%.

With O=CCCc1ccccc1 [hydrocinnamaldehyde] the “conversion of the substrate to cinnamaldehyde” value ([2]; 10 mM substrate, 10 μM catalyst, pH 8.5, room temperature, 3 hours, GC/mass spectral analysis) was “complete conversion”.

Molecule Oc1ccc(Cl)cc1 [p-Cl-phenol] has a Kd [3] of about 1000 nM.

— US6046043A, “Method for the conversion of carbonyl compounds to their β-unsaturated derivatives using molecular oxygen as the oxidant” (The Regents of the University of Michigan, priority 1998, dated 2000)
